The results in this text go back to patent US20250345329A1, “HETEROARYL DERIVATIVE COMPOUND AND USES THEREOF” (VORONOI, INC., priority 2022, published 2025).

For experiment [1], the target named is T1, human EGFR (d746-750/T790M/C797S) (Homo sapiens, UniProt P00533, C797S/DEL746-750/T790M).
T1 construct: human EGFR (d746-750/T790M/C797S) (668-end, SignalChem); purchased SignalChem
Description: EGFR C797S enzyme inhibition activity (ADP-Glo kinase assay). The format is biochemical. The note with it: purified enzyme 3 ng, ATP 5 μM, 25° C., 1 hour, luminescence; read-out: EGFR DTC Enzyme IC50. An outline of the steps: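 Kinase construct 668-end (3 ng) was incubated with 5 μM ATP and 0.2 μg substrate in Tris pH 7.4 buffer for 1 h at 25° C. ADP-Glo luminescence was read over 12 final compound concentrations from 10 μM down to 0. IC50 was taken as 50% inhibition relative to the solvent control.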

The subject of experiment [2] is Ba/F3 expressing EGFR Del19/T790M/C797S mutations. Description: Inhibitory activity on proliferation of Ba/F3 cell overexpressing EGFR C797S (Cell Titer-Glo). Format: cell-based. The note with it: Mus musculus, BaF3; 72 hours treatment, cell growth rate vs control; read-out: Ba/F3 (EGFR DTC) GI50. An outline of the steps: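 Ba/F3 cells with EGFR Del19/T790M/C797S in RPMI-1640 + 10% FBS were seeded (3000/well) 24 h before 72 h compound exposure at 37 °C. Compounds were tested in a 12-point 3-fold series, final […]–5 μM. CellTiter-Glo luminescence gave growth % versus control, from which GI50 was derived.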
A general note: Cellular ATP, detected with luciferase, serves as a proxy for viable cell number.

T1 sequence (P00533 with tags, fused parts or gaps DEL746-750/T790M/C797S): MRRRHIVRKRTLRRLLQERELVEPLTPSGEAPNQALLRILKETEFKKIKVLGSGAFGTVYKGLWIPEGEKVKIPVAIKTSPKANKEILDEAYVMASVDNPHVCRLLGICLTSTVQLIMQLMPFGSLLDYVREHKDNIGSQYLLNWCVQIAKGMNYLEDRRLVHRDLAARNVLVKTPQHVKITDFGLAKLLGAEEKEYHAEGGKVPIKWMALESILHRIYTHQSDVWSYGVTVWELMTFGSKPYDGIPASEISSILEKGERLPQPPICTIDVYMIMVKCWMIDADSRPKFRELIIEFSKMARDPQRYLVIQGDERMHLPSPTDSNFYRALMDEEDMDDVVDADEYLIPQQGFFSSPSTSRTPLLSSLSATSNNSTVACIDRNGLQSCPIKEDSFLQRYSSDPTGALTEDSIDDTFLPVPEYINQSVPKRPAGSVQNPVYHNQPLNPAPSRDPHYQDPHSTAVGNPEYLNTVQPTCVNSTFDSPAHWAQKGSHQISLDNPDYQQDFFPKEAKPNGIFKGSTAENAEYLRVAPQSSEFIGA

Broadly, the IC50 is the concentration needed to halve the response being measured. For the compound `CC(C)Nc1cc(Nc2ccnc(-c3cnn(S(=O)(=O)C4CC4)c3)n2)ncc1C(=O)NCCS(=O)(=O)N(C)C` [Example 73, 6-((2-(1-(cyclopropylsulfonyl)-1H-pyrazol-4-yl)pyrimidin-4-yl)amino)-N-(2-(N,N-dimethylsulfamoyl)eth-yl)-4-(isopropylamino)nico-tinamide], in experiment [1], the IC50 is under 50 nM. Also, the GI50 in experiment [2] was 500 to 5000 nM.
Turning to `CC(C)Nc1cc(Nc2ccnc(-c3cnn(S(=O)(=O)C4CC4)c3)n2)ncc1C(=O)NCCS(C)(=O)=O` [Example 35, 6-((2-(1-(cyclopropylsulfonyl)-1H-pyrazol-4-yl)pyrimidin-4-yl)amino)-4-(isopropylamino)-N-(2-(methylsulfonyl)ethyl) nicotinamide], in experiment [1], the IC50 is under 50 nM. In addition, the GI50 in experiment [2] is 500 to 5000 nM.
For the compound `CC(C)Nc1cc(Nc2ccnc(-c3cnn(S(=O)(=O)C4CC4)c3)n2)ncc1C(=O)NC[C@@H]1CCCN1` [Example 76, (S)-6-((2-(1-(cyclopropylsulfonyl)-1H-pyrazol-4-yl)pyrimidin-4-yl)amino)-4-(isopropylamino)-N-(pyrrolidin-2-ylmethyl)nicotinamide], the IC50 in experiment [1] is under 50 nM. Moreover, the GI50 in experiment [2] is 500 to 5000 nM.
On the same counts, the results for `C[C@H]1CCOc2c(cnn2C)-c2nccc(n2)Nc2cc(c(C(=O)NCC3CCCC3)cn2)N1` [Example 86, (S)-N-(cyclopentylmethyl)-1^1,6-dimethyl-1^1H-9-oxa-3,5-diaza-2(2,4)-pyrimidina-4(2,4)-pyridina-1(4,5)-pyrazolacyclo-nonaphane-4^5-carboxamide] are under 50 nM and under 500 nM.
For `C[C@H]1CCOc2c(cnn2C)-c2nccc(n2)Nc2cc(c(C(=O)NCCS(C)(=O)=O)cn2)N1` [Example 110, (S)-1^1,6-dimethyl-N-(2-(methylsulfonyl)ethyl)-1^1H-9-oxa-3,5-diaza-2(2,4)-pyrimidina-4(2,4)-pyridina-1(4,5)-pyrazolacyclo-nonaphane-4^5-carboxamide], in experiment [1], the IC50 was under 50 nM. For the same compound, the GI50 in experiment [2] is 500 to 5000 nM.
For `CC(C)Nc1cc(Nc2ccnc(-c3cnn(S(=O)(=O)C4CC4)c3)n2)ncc1C(=O)Nc1cccc(N2CCN(C)CC2)c1` [Example 39, 6-((2-(1-(cyclopropylsulfonyl)-1H-pyrazol-4-yl)pyrimidin-4-yl)amino)-4-(isopropylamino)-N-(3-(4-methylpiperazin-1-yl)phenyl)nicotinamide] the same measures were under 50 nM and 500 to 5000 nM.
For `CC(C)Nc1cc(Nc2ccnc(-c3cnn(S(=O)(=O)C4CC4)c3)n2)ncc1C(=O)N1CC(CS(C)(=O)=O)C1` [Example 1, (6-((2-(1-(cyclopropylsulfonyl)-1H-pyrazol-4-yl)pyrimidin-4-yl)amino)-4-(isopropylamin)pyri-din-3-yl)(3-((methylsulfonyl)meth-yl)azetidin-1-yl)methanone] the same measures were under 50 nM and 500 to 5000 nM.
On the same counts, the results for `CS(=O)(=O)CC1CN(C(=O)c2cnc(Nc3ccnc(-c4cnn(S(=O)(=O)C5CC5)c4)n3)cc2NC2CCOC2)C1` (stereo not drawn) [Example 7, (6-((2-(1-(cyclopropylsulfonyl)-1H-pyrazol-4-yl)pyrimidin-4-yl)amino)-4-((tetrahydrofuran-3-yl)amino)pyridin-3-yl)(3-((methylsulfonyl)meth-yl)azetidin-1-yl)methanone] are under 50 nM and 500 to 5000 nM.
Turning to `CC1CCCOc2c(cnn2C)-c2nccc(n2)Nc2cc(c(C(=O)NCCCC(F)(F)F)cn2)N1` (stereo not drawn) [Example 116, 1^1,6-dimethyl-N-(4,4,4-trifluorobutyl)-1^1H-10-oxa-3,5-diaza-2(2,4)-pyrimidina-4(2,4)-pyridina-1(4,5)-pyrazolacyclo-decaphane-4^5-carboxamide], the IC50 in experiment [1] was under 50 nM. Also, the GI50 in experiment [2] is under 500 nM.
For `CC(C)Nc1cc(Nc2ccnc(-c3cnn(S(=O)(=O)C4CC4)c3)n2)ncc1C(=O)NCc1ccc(C#N)cc1` [Example 55, N-(4-cyanobenzyl)-6-((2-(1-(cyclopropylsulfonyl)-1H-pyrazol-4-yl)pyrimidin-4-yl)amino)-4-(isopropylamino)nico-tinamide] the same measures were 50 to 500 nM and 500 to 5000 nM.
On the same counts, the results for `CC(C)Nc1cc(Nc2ccnc(-c3cnn(S(=O)(=O)C4CC4)c3)n2)ncc1C(=O)N1CC[C@H](CN2CCN(C)CC2)C1` [Example 65, (R)-(6-((2-(1-(cyclopropylsulfonyl)-1H-pyrazol-4-yl)pyrimidin-4-yl)amino)-4-(isopropylamino)pyri-din-3-)(3-((4-methylpiperazin-1-yl)methyl)pyrrolidin-1-yl)methanone] are under 50 nM and 500 to 5000 nM.
Consider `CC(C)Nc1cc(Nc2ccnc(-c3cnn(S(=O)(=O)C4CC4)c3)n2)ncc1C(=O)NCCS(=O)(=O)C(C)C` [Example 74, 6-((2-(1-(cyclopropylsulfonyl)-1H-pyrazol-4-yl)pyrimidin-4-yl)amino)-4-(isopropylamino)-N-(2-(isopropylsulfonyl)eth-yl)nicotinamide], for which, in experiment [1], the IC50 is under 50 nM. Moreover, the GI50 in experiment [2] is 500 to 5000 nM.
For `CC(C)Nc1cc(Nc2ccnc(-c3cnn(S(=O)(=O)C4CC4)c3)n2)ncc1C(=O)NC1CN(S(C)(=O)=O)C1` [Example 48, 6-((2-(1-(cyclopropylsulfonyl)-1H-pyrazol-4-yl)pyrimidin-4-yl)amino)-4-(isopropylamino)-N-(1-(methylsulfonyl)azeti-din-3-yl)nicotinamide] the same measures were under 50 nM and under 500 nM.
On to `CC(C)Nc1cc(Nc2ccnc(-c3cnn(S(=O)(=O)C4CC4)c3)n2)ncc1C(=O)Nc1cnn(S(=O)(=O)C2CC2)c1` [Example 32, N-(1-(cyclopropylsulfonyl)-1H-pyrazol-4-yl)-6-((2-(1-(cyclopropylsulfonyl)-1H-pyrazol-4-yL)pyrimidin-4-yl)amino)-4-(isopropylamino)nico-tinamide], for which the IC50 in experiment [1] was in the range of 50 to 500 nM. Further, the GI50 in experiment [2] fell in the range of 500 to 5000 nM.
Take `CC(C)Nc1cc(Nc2ccnc(-c3cnn(S(=O)(=O)C4CC4)c3)n2)ncc1C(=O)NCC#N` [Example 72, N-(cyanomethyl)-6-((2-(1-(cyclopropylsulfonyl)-1H-pyrazol-4-yl)pyrimidin-4-yl)amino)-4-(isoporpylamino)nico-tinamide]: in experiment [1], the IC50 was under 50 nM. Moreover, in experiment [2], the GI50 was under 500 nM.
